In patent US20130028838A1, “F18-TYROSINE DERIVATIVES FOR IMAGING BONE METASTASES” (PIRAMAL IMAGING SA, priority 2010, published 2013):
Like-named read-outs stand apart in the source and are kept apart here.

What was measured:
[1] = in vivo; cited from earlier work
786-O bone metastases = experiment: PET/CT imaging in 786-O/luc bone metastasis mouse model; settings: for accumulation in bone metastases / osteolytic lesions: [F-18]-fluoride day 51, [F-18]-D-FMT day 65
Experimental: 786-O/luc cells and the MDA-MB231SA/luc cells were harvested from subconfluent cell culture flasks and resuspended in PBS (Biochrom AG) to a final concentration of 5×10^5 cells/100 μl. For intracardiac inoculations, 5-week-old female athymic nude mice (Harlan-Winkelmann GmbH, Borchen, Germany) were anesthetized with an intraperitoneal injection of 5% Rompun (Bayer HealthCare AG, Leverkusen, Germany)/10% Ketavet (Pfizer, Karlsruhe, Germany) in 0.9% NaCl at a dose of 0.1 ml/10 g body weight. Using an insulin syringe (BD Micro-Fine+Demi U-100, Becton Dickinson GmbH, Heidelberg, Germany), 5×10^5 786-O/luc cells in 100 μl PBS were inoculated into the left cardiac ventricle (i.c.) of anesthetized mice. Experiments were approved by the governmental review committee on animal care.
10 to 12 MBq [F-18]-fluoride or [F-18]-D-FMT were injected i.v. into the tail vein. 60 min after injection anesthesia was induced by isoflurane/O2 and twenty-minute micro-PET/computed tomography (CT) scans were obtained using an Inveon micro PET/CT scanner (Siemens).
51 days after the inoculation of the 786-O/luc cells into the mice, PET/CT imaging was performed with [F-18]-fluoride (FIG. 1 right side). […] The same mouse was imaged 2 weeks later (day 65) with [F-18]-D-FMT (FIG. 1 left side).

[2] = tested on: inflammatory muscle tissue; settings: cited from earlier work
786-O/luc cells = experiment: in vitro uptake of [F-18]-D-FMT into 786-O/luc cells; assay type: cell-based, human; settings: after 30 min
[3] = tested on: MDA-MB231SA bone metastases; experiment: PET/CT imaging in MDA-MB231SA/luc bone metastasis mouse model; assay type: in vivo; settings: PET/CT 25 days after inoculation
Excerpt: To conclude, [F-18]-D-FMT is useful for the detection of bone metastases.

| Compound | blood-borne tracer carried in red cells [1] | uptake into regenerating and remineralizing bone / detection of osteoblastic activity (786-O bone metastases) | accumulation in bone metastases / osteolytic lesions (786-O bone metastases) | uptake in inflammatory muscle tissue ([2]; Turpentine-induced inflammation) | uptake into the 786-O/luc cells (786-O/luc cells) [% applied dose/10^6 cells] | uptake into the healthy bone (786-O bone metastases; 60 min after i.v. injection) | uptake into the bone metastases [3] | uptake in inflammatory muscle tissue ([2]; in vivo) |
| --- | --- | --- | --- | --- | --- | --- | --- | --- |
| [18FH] [[F-18]-fluoride, reference compound] | approximately 30% | unspecific uptake | high accumulation in multiple osteolytic lesions |  |  |  |  |  |
| N[C@H](Cc1ccc(OC[18F])cc1)C(=O)O [[F-18]-D-FMT, (R)-2-amino-3-(4[F-18]fluoromethoxy-phenyl)-propionic acid] |  | not detected | accumulated in all bone metastases imaged by [F-18]-fluoride | no uptake | 12.8 | no uptake | showed uptake into the bone metastases |  |
| 18F-fluorodeoxyglucose [FDG, reference compound] |  |  |  |  |  |  |  | taken up |
